Here are results for five compounds from patent US5246929A, “Naphtho thiazine (or oxaline) derivatives and preparations thereof” (Tanabe Seiyaku Co., Ltd., priority 1990, dated 1993).

Counter-ions that a name gives are not always drawn.

Holding throughout (format): in vivo
For data set [1], the system named is cerebral anoxia induced by potassium cyanide. As to the kind of experiment: Activity for protecting cerebral anoxia induced by potassium cyanide (survival time). The following applies: 10 mg/kg orally, mice; potassium cyanide 2.4 mg/kg tail vein one hour later.
The test system of data set [2] is mice. As to the kind of experiment: Acute oral toxicity in mice. The following applies: 500 mg/kg orally, 7 days. From the text:
The compounds (I) of this invention can inhibit the calcium entrance into the cerebral synaptosome and show excellent central calcium antagonistic activity and/or excellent calcium antagonistic activity in cerebral blood vessel, and can be used for the treatment and prophylaxis of cerebral diseases due to cerebral blood flow disorder at acute and chronic periods, for example, subarachnoid hemorrhage, cerebral infarction, etc. The compounds (I) of this invention have also an activity for protecting cerebral neurocyte. For example, when 2-(4-chlorophenyl)-4-(diethylamino)acetyl-3,4-dihydro-2H-1,4-benzothiazinewas intraperitoneally administered to evanescent cerebral ischemic rats with ligating four vessels in a dose of 1.5 mg/kg twice a day for four days, it increased the number of normal pyramidal cells at hippocampul CA1 region in about 90% in comparison with the non-medicated group. Accordingly, the compounds (I) of this invention can effectively be used for the prophylaxis, treatment and amelioration of sequelae of cerebral neurocyte dyscrasia, for example, disturbances of consciousness (e.g. somnolenz, sopor, coma, stupor, clouding of consciousness, etc.), motor paralysis (e.g. parkinsonism, etc.), cerebral neuropathy (e.g. dysuria, etc.), speech and language disorders (e.g. articulation disorders, aphasia, semantic aphasia, etc.), sensitive disorders (e.g. pain, sysesthesia, heat sensibility disorder, etc.), psychological disorders (e.g. dementia, hallucination, delusion, delirium, poriomania, melancholia, neurosis, emotional incontinence, etc.), and the like, and further the prophylaxis of palindromia and also the prophylaxis of exacerbation and progression of the symptoms. […] In addition, the compounds (I) of this invention have low toxicity and has high safety.

Data set [3] concerns normal pyramidal cells at hippocampul CA1 region. As to the kind of experiment: Number of normal pyramidal cells in evanescent cerebral ischemic rats with ligating four vessels. The following applies: 1.5 mg/kg intraperitoneally twice a day for four days, four vessels ligated. From the text: The compounds (I) of this invention can inhibit the calcium entrance into the cerebral synaptosome and show excellent central calcium antagonistic activity and/or excellent calcium antagonistic activity in cerebral blood vessel, and can be used for the treatment and prophylaxis of cerebral diseases due to cerebral blood flow disorder at acute and chronic periods, for example, subarachnoid hemorrhage, cerebral infarction, etc. The compounds (I) of this invention have also an activity for protecting cerebral neurocyte. For example, when 2-(4-chlorophenyl)-4-(diethylamino)acetyl-3,4-dihydro-2H-1,4-benzothiazinewas intraperitoneally administered to evanescent cerebral ischemic rats with ligating four vessels in a dose of 1.5 mg/kg twice a day for four days, it increased the number of normal pyramidal cells at hippocampul CA1 region in about 90% in comparison with the non-medicated group. […]

As to “4-(dimethylamino)acetyl-2-(4-fluorophenyl)-3,4-dihydro-2H-1,4-benzothiazine oxalate [Example 1]”, in data set [1], the “Prolonging rate of survival time” value came out at 62%.
Take `CN(C)CCCN1C(=O)C(c2cccc(C(F)(F)F)c2)Sc2ccc3ccccc3c21.O=C(O)C(=O)O` (centres unmarked) [1-[3-(dimethylamino)propyl]-3-(3-trifluoromethylphenyl)-1H-naphtho[2,1-b][1,4]thiazin-2(3H)-one oxalate]: in data set [2], the mortality of mice entry is “no mouse died even after 7 days”.
For the compound `CCN(CC)CC(=O)N1CC(c2ccc(Cl)cc2)Sc2ccccc21` (centres unmarked) [2-(4-chlorophenyl)-4-(diethylamino)acetyl-3,4-dihydro-2H-1,4-benzothiazineoxalate], the mortality of mice result in data set [2] is listed as “no mouse died even after 7 days”.
For the compound `CCN(CC)CC(=O)N1CC(c2ccc(Cl)cc2)Sc2ccccc21` (centres unmarked) [2-(4-chlorophenyl)-4-(diethylamino)acetyl-3,4-dihydro-2H-1,4-benzothiazine], the “increase of the number of normal pyramidal cells at hippocampul CA1 region in comparison with the non-medicated group” value in data set [3] is listed as “about 90%”.
On to `CCN(CC)CC(=O)N1CC(c2ccc(Cl)cc2)Sc2ccc3ccccc3c21` (centres unmarked) [3-(4-chlorophenyl)-1-(diethylamino)acetyl-2,3-dihydro-1H-naphtho[2,1-b][1,4]thiazine oxalate], for which, in data set [2], the mortality of mice result was “no mouse died even after 7 days”.
